This passage reports DC50 and Dmax results from patent US12473294B2, “Selective modulators of mutant LRRK2 proteolysis and associated methods of use” (Arvinas Operations, Inc., priority 2020, dated 2025).

In one assay the target is T1, wildtype LRRK2 (Homo sapiens, UniProt Q5S007).
T1 construct: endogenous in cells; host or cells: HEK293 with HiBit knocked in at the 3' end of the endogenous LRRK2 gene, stably expressing firefly luciferase
Description: LRRK2 degradation HiBit assay, wildtype LRRK2 tagged with a HiBit tag in HEK293 cells. The format is cell-based. The conditions noted are these: 24 hours compound incubation; for DC50: read-out: *WT DC50; for Dmax: read-out: ** WT Dmax (%). The procedure:
The assay measures the degradation of wildtype and G2019S LRRK2 tagged with a HiBit tag on the C-terminus of the protein that was expressed from a mammalian expression vector, driven by the ubiquitin promoter in HEK293 cells. Each compound dose-response was repeated on two separate days, on three separate plates each day.
(§1) Plasmid Preparation. Transfection mixes were assembled as follows and incubated for 30 minutes at room temperature. In a 15 mL tube, 5.25 mL Opti-MEM (no additions) was mixed with 17 μL Firefly Luciferase plasmid at 1 μg/μL and 158 μL WT plasmid DNA at 1 μg/μL (175 μg total DNA) were mixed by flicking. In a new 15 mL tube, 5.25 mL OptiMEM was mixed with 17 μL Firefly Luciferase plasmid at 1 μg/μL and 158 μL G2019S plasmid DNA at 1 μg/μL (175 μg total DNA) were mixed by flicking. X-tremeGene HP was mixed thoroughly using a vortex. Next, 175 μL was added to each tube and flicked to mix. Both tubes were left to incubate for 30 minutes at room temperature.
While the transfection mixes were incubating, HEK293 cells (acquired from ATCC; ATCC CRL-1573) were harvested with trypsin. Once cells are detached, the cells were resuspended in 12 mL OptiMEM+5% FBS and transferred to a 50 mL tube. The cells were mixed well and counted. Using OptiMEM+5% FBS, the cells were diluted in two 250 mL conical tubes at 0.71×10^6 cells/mL in 70 mL. One tube was labeled “WT” and the other “G2019S”. The WT and G2019S transfection mixes were added dropwise to the corresponding 250 mL tubes. The tubes were mixed first by pipetting then by swirling. The tubes were incubated at room temperature for at least 5 minutes.
(§2) Each tube was swirled before dispensing and after every three plates. Seventy microliters of cells were dispensed with WT or G2019S DNA to seven plates each. Three plates of each were tested with compound plate one (preparation described below) and three plates of each were tested with compound plate two (preparation described below). The first plate from each set served as a “prime” plate and was not used to test compounds. Each plate was incubated in the hood for 10 minutes before placing in the 37° C. incubator for 24 hours.
(§3) Preparation of Compound and Assay Plates. Two compound plates were made using 96 well polypropylene plates. Compounds were made up at 10 mM and were diluted to 1 mM in 30 μL. Each dose response curve included a well of DMSO, as a negative control and for normalization, and a well of 0.5 μM of Exemplary Compound 4 as a positive control. In addition to seven test compounds, each plate also included a dose response of Exemplary Compound 4. The compound plates were spun down along at 1200 rpm for 2 minutes.
(§4) The two compound plates were then mixed and 2 μL was diluted in intermediate plates having 248 μL of Opti-Mem in each well. Next, 10 μL diluted compounds from the intermediate plates were added to each test plate (three WT and three G2019S plates per compound plate for a total of 12 assay plates). The plates were incubated for 24 hours at 37° C.
(§5) All assay plates and all Nano-Glo Dual-Luciferase Reporter Assay System components (except for the DLR substrate) were equilibrated to room temperature. Next, the luciferase buffer was mixed with the lyophilized amber bottle until fully dissolved, and 75 μL of the luciferase mixture was added to each well of each assay plate. The assay plates were incubated for 10 minutes at room temperature with shaking for at least 5 minutes, and then read on a plate reader.
(§6) Developing Plates and Analyzing Data. One milliliter of DLR substrate and 1 mL LgBiT Protein were added to the Stop and Glo buffer, and 75 μL of the mixture was added to each well of each plate. Optically clear seals were added to each plate and each plate was incubated for 20 minutes with shaking for at least 10 minutes, and then read on a plate reader. […]
(The HiBiT peptide binds its large partner to form an active luciferase.)

Another assay has as its target T2, G2019S LRRK2 (Homo sapiens, UniProt Q5S007, G2019S).
T2 construct: expressed in transfected cells; host or cells: HEK293 (ATCC CRL-1573)
Description: LRRK2 degradation HiBit assay, G2019S LRRK2 tagged with a HiBit tag expressed in HEK293 cells. Type of assay: cell-based. The note with it: 24 hours compound incubation; for Dmax: HEK293, HEK293 cells; for DC50: HEK293 cells. The protocol: The assay measures the degradation of wildtype and G2019S LRRK2 tagged with a HiBit tag on the C-terminus of the protein that was expressed from a mammalian expression vector, driven by the ubiquitin promoter in HEK293 cells. Each compound dose-response was repeated on three separate days, on three separate plates each day.
as §1
While the transfection mixes were incubating, HEK293 cells acquired from ATCC (ATCC CRL-1573) were harvested with trypsin. Once cells are detached, the cells were resuspended in 12 mL OptiMEM+5% FBS and transferred to a 50 mL tube. The cells were mixed well and counted. Using OptiMEM+5% FBS, the cells were diluted in two 250 mL conical tubes at 0.71×10^6 cells/mL in 70 mL. One tube was labeled “WT” and the other “G2019S”. The WT and G2019S transfection mixes were added dropwise to the corresponding 250 mL tubes. The tubes were mixed first by pipetting then by swirling. The tubes were incubated at room temperature for at least 5 minutes.
as §2, §3, §4, §5, §6

T1 sequence (Q5S007 whole entry): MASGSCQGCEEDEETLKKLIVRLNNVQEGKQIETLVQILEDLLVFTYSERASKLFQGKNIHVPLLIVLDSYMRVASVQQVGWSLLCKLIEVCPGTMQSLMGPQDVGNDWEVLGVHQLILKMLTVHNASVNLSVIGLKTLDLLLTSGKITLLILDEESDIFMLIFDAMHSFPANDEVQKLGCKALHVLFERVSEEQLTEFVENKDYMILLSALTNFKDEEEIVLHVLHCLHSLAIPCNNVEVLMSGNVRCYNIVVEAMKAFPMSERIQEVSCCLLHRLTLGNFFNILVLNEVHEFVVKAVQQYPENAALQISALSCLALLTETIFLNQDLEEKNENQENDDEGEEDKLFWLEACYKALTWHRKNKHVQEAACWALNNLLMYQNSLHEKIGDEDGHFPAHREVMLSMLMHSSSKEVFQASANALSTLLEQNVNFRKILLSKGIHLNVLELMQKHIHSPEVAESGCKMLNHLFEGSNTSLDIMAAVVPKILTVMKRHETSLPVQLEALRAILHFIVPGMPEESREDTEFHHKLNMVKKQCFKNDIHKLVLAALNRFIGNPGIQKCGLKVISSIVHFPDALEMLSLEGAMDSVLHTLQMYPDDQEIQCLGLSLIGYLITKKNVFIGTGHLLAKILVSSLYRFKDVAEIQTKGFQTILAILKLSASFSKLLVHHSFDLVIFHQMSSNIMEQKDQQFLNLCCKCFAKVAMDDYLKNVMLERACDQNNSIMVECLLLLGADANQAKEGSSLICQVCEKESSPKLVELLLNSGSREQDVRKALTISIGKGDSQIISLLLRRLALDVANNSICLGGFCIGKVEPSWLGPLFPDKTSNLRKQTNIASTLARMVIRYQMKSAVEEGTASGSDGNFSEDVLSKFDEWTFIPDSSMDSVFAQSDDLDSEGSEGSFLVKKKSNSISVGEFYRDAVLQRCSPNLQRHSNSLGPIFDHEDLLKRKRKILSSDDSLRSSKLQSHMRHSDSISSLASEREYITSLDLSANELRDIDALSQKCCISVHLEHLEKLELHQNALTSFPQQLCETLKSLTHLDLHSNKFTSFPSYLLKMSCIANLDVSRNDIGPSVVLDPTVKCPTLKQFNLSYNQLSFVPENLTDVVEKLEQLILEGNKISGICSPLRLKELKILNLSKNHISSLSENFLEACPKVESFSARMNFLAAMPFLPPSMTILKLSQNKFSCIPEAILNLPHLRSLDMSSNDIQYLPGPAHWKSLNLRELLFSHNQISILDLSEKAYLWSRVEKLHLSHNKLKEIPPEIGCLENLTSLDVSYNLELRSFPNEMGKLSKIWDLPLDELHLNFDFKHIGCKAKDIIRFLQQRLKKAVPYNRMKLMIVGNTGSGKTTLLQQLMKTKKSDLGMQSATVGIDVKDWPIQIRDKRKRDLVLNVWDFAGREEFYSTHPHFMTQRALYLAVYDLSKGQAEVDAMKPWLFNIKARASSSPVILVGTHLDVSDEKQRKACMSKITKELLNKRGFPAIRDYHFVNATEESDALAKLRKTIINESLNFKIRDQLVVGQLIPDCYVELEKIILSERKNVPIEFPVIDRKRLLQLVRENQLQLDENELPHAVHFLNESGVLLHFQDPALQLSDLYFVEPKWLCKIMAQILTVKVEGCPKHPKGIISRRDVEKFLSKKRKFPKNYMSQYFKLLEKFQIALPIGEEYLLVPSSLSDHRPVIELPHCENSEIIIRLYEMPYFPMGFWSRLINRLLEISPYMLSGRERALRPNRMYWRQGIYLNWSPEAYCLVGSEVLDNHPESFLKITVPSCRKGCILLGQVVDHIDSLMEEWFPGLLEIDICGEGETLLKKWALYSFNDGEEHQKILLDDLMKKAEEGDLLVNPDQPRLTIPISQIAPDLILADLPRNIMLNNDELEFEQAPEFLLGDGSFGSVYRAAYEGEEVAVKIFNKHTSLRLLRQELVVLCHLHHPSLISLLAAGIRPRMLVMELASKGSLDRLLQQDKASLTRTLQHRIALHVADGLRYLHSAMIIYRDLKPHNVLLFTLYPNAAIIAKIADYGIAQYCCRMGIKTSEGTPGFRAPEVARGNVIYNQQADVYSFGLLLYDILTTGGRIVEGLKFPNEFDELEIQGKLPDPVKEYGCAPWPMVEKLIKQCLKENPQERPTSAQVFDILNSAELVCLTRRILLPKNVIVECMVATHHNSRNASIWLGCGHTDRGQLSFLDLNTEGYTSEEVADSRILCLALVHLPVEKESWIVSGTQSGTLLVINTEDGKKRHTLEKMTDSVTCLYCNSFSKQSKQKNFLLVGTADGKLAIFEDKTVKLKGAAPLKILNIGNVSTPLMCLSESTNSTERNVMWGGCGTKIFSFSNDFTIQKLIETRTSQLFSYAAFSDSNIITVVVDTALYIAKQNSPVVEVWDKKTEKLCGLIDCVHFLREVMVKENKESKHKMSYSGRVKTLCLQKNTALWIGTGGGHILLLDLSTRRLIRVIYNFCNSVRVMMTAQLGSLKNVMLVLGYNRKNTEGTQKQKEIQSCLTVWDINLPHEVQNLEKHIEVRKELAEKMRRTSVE
T2 sequence (Q5S007 whole entry G2019S): as the sequence (Q5S007 whole entry) above, with G2019S counted along it

For orientation: DC50 means the concentration giving 50% degradation. What is called Dmax is the largest share of the target that was removed. Turning to `CC1=C(C(=O)Nc2ccc3[nH]nc(-c4ccnc(N5CCN(CC6CCN(CC7CCN(c8ccc9c(c8)C(=O)N(C8CCC(=O)NC8=O)C9=O)CC7)CC6)CC5)c4)c3c2)[C@H](C)n2nnnc2N1C` (stereo partly drawn) [compound 12, (7S)-N-(3-(2-(4-((1-((1-(2-(2,6-dioxopiperidin-3-yl)-1,3-dioxoisoindolin-5-yl)piperidin-4-yl)methyl)piperidin-4-yl)methyl)piperazin-1-yl)pyridin-4-yl)-1H-indazol-5-yl)-4,5,7-trimethyl-4,7-dihydrotetrazolo[1,5-a]pyrimidine-6-carboxamide], at wildtype LRRK2, the DC50 is at least 100 nM. On G2019S LRRK2, the maximal degradation (Dmax) is under 50% and the DC50 is at least 100 nM.

Turning to `CC1=C(C(=O)Nc2ccc3[nH]nc(-c4ccnc(N5CCN(CC6CCN(CC7CCN(c8ccc9c(c8)C(=O)N(C8CCC(=O)NC8=O)C9=O)CC7)CC6)CC5)c4)c3c2)Cn2nnnc2N1C` (centres unmarked) [compound 13, N-(3-(2-(4-((1-((1-(2-(2,6-dioxopiperidin-3-yl)-1,3-dioxoisoindolin-5-yl)piperidin-4-yl)methyl)piperidin-4-yl)methyl)piperazin-1-yl)pyridin-4-yl)-1H-indazol-5-yl)-4,5-dimethyl-4,7-dihydrotetrazolo[1,5-a]pyrimidine-6-carboxamide], on wildtype LRRK2, the greatest degradation seen (Dmax) was under 50% and the DC50 was at least 100 nM. At G2019S LRRK2, this compound showed a Dmax of 50 to 70% and a DC50 of 10 to 50 nM.

Take `CC1=C(C(=O)Nc2ccc3[nH]nc(-c4ccnc(N5CCN(CCC6CCN(CC7CCN(c8ccc9c(c8)C(=O)N(C8CCC(=O)NC8=O)C9=O)CC7)CC6)CC5)c4)c3c2)[C@@H](C)n2nnnc2N1C` (stereo partly drawn) [compound 14, (7R)-N-(3-(2-(4-(2-(1-((1-(2-(2,6-dioxopiperidin-3-yl)-1,3-dioxoisoindolin-5-yl)piperidin-4-yl)methyl)piperidin-4-yl)ethyl)piperazin-1-yl)pyridin-4-yl)-1H-indazol-5-yl)-4,5,7-trimethyl-4,7-dihydrotetrazolo[1,5-a]pyrimidine-6-carboxamide]: on wildtype LRRK2, the greatest degradation seen (Dmax) fell in the range of 50 to 70% and the DC50 is at least 100 nM. In addition, at G2019S LRRK2, the Dmax is under 50% and the half-maximal degradation concentration (DC50) is 50 to 100 nM.

As for `CC1=C(C(=O)Nc2ccc3[nH]nc(-c4ccnc(N5CCN(CCCN6CCN(c7ccc8c(c7)C(=O)N(C7CCC(=O)NC7=O)C8=O)CC6)CC5)c4)c3c2)[C@@H](C)n2nnnc2N1C` (stereo partly drawn) [compound 15, (7R)-N-(3-(2-(4-(3-(4-(2-(2,6-dioxopiperidin-3-yl)-1,3-dioxoisoindolin-5-yl)piperazin-1-yl)propyl)piperazin-1-yl)pyridin-4-yl)-1H-indazol-5-yl)-4,5,7-trimethyl-4,7-dihydrotetrazolo[1,5-a]pyrimidine-6-carboxamide], on wildtype LRRK2, the maximal degradation (Dmax) was in the range of 50 to 70% and the half-maximal degradation concentration (DC50) is at least 100 nM. At G2019S LRRK2, this compound returned a maximal degradation (Dmax) of 50 to 70% and a DC50 of 10 to 50 nM.

With `CC1=C(C(=O)Nc2ccc3[nH]nc(-c4ccnc(N5CCN(CC6CN(CC7CCN(c8ccc9c(c8)C(=O)N(C8CCC(=O)NC8=O)C9=O)CC7)C6)CC5)c4)c3c2)[C@@H](C)n2nnnc2N1C` (stereo partly drawn) [compound 17, (7R)-N-(3-(2-(4-((1-((1-(2-(2,6-dioxopiperidin-3-yl)-1,3-dioxoisoindolin-5-yl)piperidin-4-yl)methyl)azetidin-3-yl)methyl)piperazin-1-yl)pyridin-4-yl)-1H-indazol-5-yl)-4,5,7-trimethyl-4,7-dihydrotetrazolo[1,5-a]pyrimidine-6-carboxamide], on wildtype LRRK2, the Dmax fell in the range of 50 to 70% and the DC50 is at least 100 nM. At G2019S LRRK2, this compound returned a maximal degradation (Dmax) of 50 to 70% and a DC50 of 50 to 100 nM.

As to `CC1=C(C(=O)Nc2ccc3[nH]nc(-c4ccnc(N5CCN(CC6CCN(C7CCN(c8ccc9c(c8)C(=O)N(C8CCC(=O)NC8=O)C9=O)CC7)CC6)CC5)c4)c3c2)[C@@H](C)n2nnnc2N1C` (stereo partly drawn) [compound 18, (7R)-N-(3-(2-(4-((1-(1-(2-(2,6-dioxopiperidin-3-yl)-1,3-dioxoisoindolin-5-yl)piperidin-4-yl)piperidin-4-yl)methyl)piperazin-1-yl)pyridin-4-yl)-1H-indazol-5-yl)-4,5,7-trimethyl-4,7-dihydrotetrazolo[1,5-a]pyrimidine-6-carboxamide], on wildtype LRRK2, the greatest degradation seen (Dmax) is under 50% and the DC50 was at least 100 nM. In addition, on G2019S LRRK2, the maximal degradation (Dmax) is 50 to 70% and the DC50 was in the range of 50 to 100 nM.

Consider `CC1=C(C(=O)Nc2ccc3[nH]nc(-c4ccnc(N5CCN(CCOCCN6CC7(C6)CN(c6ccc8c(c6)C(=O)N(C6CCC(=O)NC6=O)C8=O)C7)CC5)c4)c3c2)[C@@H](C)n2nnnc2N1C` (stereo partly drawn) [compound 20, (7R)-N-[3-(2-{4-[2-(2-{6-[2-(2,6-dioxopiperidin-3-yl)-1,3-dioxo-2,3-dihydro-1H-isoindol-5-yl]-2,6-diazaspiro[3.3]heptan-2-yl}ethoxy)ethyl]piperazin-1-yl}pyridin-4-yl)-1H-indazol-5-yl]-4,5,7-trimethyl-4H,7H-[1,2,3,4]tetrazolo[1,5-a]pyrimidine-6-carboxamide], for which the DC50 on wildtype LRRK2 and on G2019S LRRK2 was at least 100 nM each time.

`CC1=C(C(=O)Nc2ccc3[nH]nc(-c4ccnc(N5CCN(CCN6CCN(CC7CCN(c8ccc9c(c8)C(=O)N(C8CCC(=O)NC8=O)C9=O)CC7)CC6)CC5)c4)c3c2)[C@@H](C)n2nnnc2N1C` (stereo partly drawn) [compound 21, (7R)-N-(3-(2-(4-(2-(4-((1-(2-(2,6-dioxopiperidin-3-yl)-1,3-dioxoisoindolin-5-yl)piperidin-4-yl)methyl)piperazin-1-yl)ethyl)piperazin-1-yl)pyridin-4-yl)-1H-indazol-5-y1)-4,5,7-trimethyl-4,7-dihydrotetrazolo[1,5-a]pyrimidine-6-carboxamide]: the half-maximal degradation concentration (DC50) at wildtype LRRK2 is at least 100 nM. On G2019S LRRK2, this compound gave a Dmax of 50 to 70% and a DC50 of at least 100 nM.

Take `CC1=C(C(=O)Nc2ccc3[nH]nc(-c4ccnc(N5CCN(CC(F)(F)C6CCN(CC7CCN(c8ccc9c(c8)C(=O)N(C8CCC(=O)NC8=O)C9=O)CC7)CC6)CC5)c4)c3c2)[C@@H](C)n2nnnc2N1C` (stereo partly drawn) [compound 22, (7R)-N-(3-(2-(4-(2-(1-((1-(2-(2,6-dioxopiperidin-3-yl)-1,3-dioxoisoindolin-5-yl)piperidin-4-yl)methyl)piperidin-4-yl)-2,2-difluoroethyl)piperazin-1-yl)pyridin-4-yl)-1H-indazol-5-yl)-4,5,7-trimethyl-4,7-dihydrotetrazolo[1,5-a]pyrimidine-6-carboxamide]: on wildtype LRRK2, the Dmax is 50 to 70% and the half-maximal degradation concentration (DC50) is under 10 nM. At G2019S LRRK2, this compound showed a Dmax of 50 to 70% and a DC50 of under 10 nM.
